Patent US10676514B2, “CDCA1-derived peptide and vaccine containing same” (ONCOTHERAPY SCIENCE, INC., priority 2014, dated 2020)
Entries after “also recorded” stand apart in the source; their conditions may differ.

Tests used:
[1] = system: peptide-pulsed C1R-A11; test: IFN-gamma ELISA of CTL lines and CTL clones (HLA-A*1101); assay type: cell-based, human; conditions: for IFN-gamma production of CTL clones: CTL clones by limiting dilution
Experimental: CTLs were propagated in culture using methods similar to those disclosed by Riddell et al. (Walter E A et al., N Engl J Med 1995, 333(16): 1038-44; Riddell S R et al., Nat Med 1996, 2(2): 216-23). The CTLs were co-cultured in a total of 25 ml AIM-V medium containing 5% AS (AIM-V/5% AS) and 40 ng/ml anti-CD3 antibody with two types of Mitomycin C-treated human B lymphoblastoid cell lines at 5×10^6 cells/flask. One day after beginning of the culturing, 120 IU/ml IL-2 was added to the culture. On days 5, 8 and 11, a fresh AIM-V/5% AS medium containing 30 IU/ml IL-2 was added to the culture (Tanaka H et al., Br J Cancer 2001, 84(1): 94-9; Umano Y et al., Br J Cancer 2001, 84(8): 1052-7; Uchida N et al., Clin Cancer Res 2004, 10(24): 8577-86; Suda T et al., Cancer Sci 2006, 97(5): 411-9; Watanabe T et al., Cancer Sci 2005, 96(8): 498-506).
Dilution of CTLs was carried out to make 0.3, 1 and 3 cells/well in 96 round-bottomed microtiter plates (Nalge Nunc International). The CTLs were co-cultured with two types of Mitomycin C-treated human B lymphoblastoid cell lines at 1×10^4 cells/well in a total of 150 micro-l/well AIM-V/5% AS medium with 30 ng/ml anti-CD3 antibody and 125 IU/ml IL-2. Ten days later, IL-2 was added to the medium at 50 micro-l/well to reach a final concentration of 125 IU/ml. On day 14, the CTL activity was tested, and the CTL clones were propagated using the same method as described above (Uchida N et al., Clin Cancer Res 2004, 10(24): 8577-86; Suda T et al., Cancer Sci 2006, 97(5): 411-9; Watanabe T et al., Cancer Sci 2005, 96(8): 498-506).
Specifically, peptide-pulsed C1R-A11 (1×10^4 cells/well) was prepared as the stimulator cell. The induced CTLs, i.e., CTL lines and CTL clones, were used as the responder cell. The IFN-gamma ELISPOT assay and IFN-gamma ELISA were performed according to the manufacturer's manual.

[2] = system: peptide-pulsed C1R-A03; test: IFN-gamma ELISPOT assay of peptide-induced CTLs (HLA-A*0301); assay type: cell-based, human; conditions: CTLs induced from HLA-A*0301-positive donors, peptide-pulsed C1R-A03 vs control
Text: Monocyte-derived dendritic cells (DCs) were used as the antigen-presenting cell to induce a cytotoxic T lymphocyte (CTL) response against peptides presented on human leukocyte antigens (HLAs). As described in the other sections, DCs were generated in vitro (Nakahara S et al., Cancer Res 2003, 63(14): 4112-8). Specifically, peripheral-blood mononuclear cells isolated from healthy volunteers (HLA-A*0301-positive) with the Ficoll-Paque plus solution (Pharmacia) were separated by attaching to plastic tissue culture dishes (Becton Dickinson) and concentrated as a monocyte fraction. The monocyte-concentrated population was cultured in the presence of 1000 IU/ml granulocyte macrophage colony-stimulating factor (R&D System) and 1000 IU/ml interleukin(IL)-4 (R&D System) in an AIM-V medium (Invitrogen) containing 2% heat-inactivated autologous serum (AS). After seven days of culturing, the cytokine-induced DCs were pulsed with 20 micro-g/ml each of the synthesized peptides in an AIM-V medium at 37 degrees C. for three hours in the presence of 3 micro-g/ml beta 2-microglobulin. The generated cells appeared to express on their cell surface DC-associated molecules such as CD80, CD83, CD86 and HLA class II (data not shown). Next, these peptide-pulsed DCs were inactivated by X-ray irradiation (20 Gy), and mixed in a 1:20 ratio with autologous CD8^+ T cells obtained by positive selection using the CD8 Positive Isolation Kit (Dynal). These culture products were seeded in a 48-well plate (Corning). Each well was made to contain 1.5×10^4 peptide-pulsed DCs, 3×10^5 CD8^+ T cells and 10 ng/ml IL-7 (R&D System) in 0.5 ml of the AIM-V/2% AS medium. Three days later, these culture products were added with a final concentration of 20 IU/ml IL-2 (CHIRON). On day 7 and day 14, T cells were further stimulated with peptide-pulsed autologous DCs. The DCs were prepared every time by the same method as above. On day 21, after the third peptide stimulation, CTLs were examined against the peptide-pulsed C1R-A03 by a human interferon (IFN)-gamma enzyme-linked immunospot (ELISPOT) assay (Tanaka H et al., Br J Cancer 2001, 84(1): 94-9; Umano Y et al., Br J Cancer 2001, 84(8): 1052-7; Uchida N et al., Clin Cancer Res 2004, 10(24): 8577-86; Suda T et al., Cancer Sci 2006, 97(5): 411-9; Watanabe T et al., Cancer Sci 2005, 96(8): 498-506).
Specifically, peptide-pulsed C1R-A03 (1×10^4 cells/well) was prepared as the stimulator cell. The induced CTLs, i.e., CTL lines and CTL clones, were used as the responder cell. The IFN-gamma ELISPOT assay and IFN-gamma ELISA were performed according to the manufacturer's manual.

[3] = system: COS7 cells transfected with CDCA1 and HLA-A*1101; test: Specific CTL activity against target cells expressing CDCA1 and HLA-A*1101; assay type: cell-based, African green monkey; conditions: listed as CDCA1-A11-9-219
Text: A cDNA encoding the open-reading frame of a target gene or HLA-A*1101 was amplified by PCR. The PCR-amplified product was cloned into an expression vector. Either or both of the target gene-expressing vector and the HLA-A*1101-expressing vector were transfected into COS7, which is a cell line negative for the target gene and HLA, using Lipofectamine 2000 (Invitrogen) following the manufacturer's recommended protocol. Two days after transfection, the transfected cells were harvested using versene (Invitrogen), and used as the target cell for CTL activity assay (5×10^4 cells/well).
The CTL clone established against CDCA-A11-9-219 (SEQ ID NO: 7) was investigated for its ability to recognize target cells expressing CDCA1 and the HLA-A*1101 molecule. COS7 cells transfected with both full-length CDCA1 and the HLA-A*1101 gene (a specific model of target cells expressing CDCA1 and the HLA-A*1101 gene) were prepared as the target cell. COS7 cells transfected with either full-length CDCA1 or HLA-A*1101 were prepared as the control.

Row | Sequence | IFN-gamma production of CTL clones ([1]; peptide-pulsed C1R-A11, listed as CDCA1-A1-9-219) | IFN-gamma production of CTL clones ([1]; peptide-pulsed C1R-A11, listed as CDCA1-A11-9-219) | IFN-gamma production of CTL lines ([1]; CTL lines, peptide-pulsed vs non-pulsed target cells, HLA-A*1101) | peptide-specific CTL activity (IFN-gamma production) ([2]; listed as CDCA1-A03-9-219) | specific CTL activity of CTL clone ([3]; COS7 cells transfected with both CDCA1 and HLA-A*1101) | specific CTL activity of CTL clone against control cells ([3]; COS7 cells transfected with either full-length CDCA1 or HLA-A*1101) | peptide-specific CTL activity (IFN-gamma production) ([2]; listed as CDCA1-A03-10-400)
1 | KTKRLNELK (a peptide derived from CDCA1) [SEQ ID NO: 7] | potent IFN-gamma production | Potent IFN-gamma production | potent IFN-gamma production | potent IFN-gamma production; also recorded: significant specific CTL activity | specific CTL activity; also recorded: potent CTL activity | a significant specific CTL activity was not shown; also recorded: a significant specific CTL activity was not detected | 
2 | KIKLGIQQLK (a peptide derived from CDCA1) [SEQ ID NO: 38] |  |  |  |  |  |  | potent IFN-gamma production; also recorded: significant specific CTL activity
